Format in all cases: organism-based
Common to all, as to details: in vivo

Data set [1] has as its system Plutella xylostella. As to the kind of experiment: Toxicity in Plutella xylostella larvae after 72 hrs.
Data set [2] concerns Plutella xylostella. The data set is described as follows: Toxicity in Plutella xylostella larvae after 96 hrs.
Data set [3] has as its system Plutella xylostella. The data set is described as follows: Toxicity in Plutella xylostella larvae after 48 hrs.
Data set [4] relates to Plutella xylostella. As to the kind of experiment: Toxicity in Plutella xylostella larvae after 24 hrs.

Consider `COC(=O)[C@H]1OC[C@@]23[C@@H](OC(=O)CC(C)C)C[C@@H](OC(C)=O)[C@@]4(C(=O)OC)CO[C@@H]([C@@H](O)[C@@](C)([C@]56O[C@@]5(C)[C@H]5C[C@@H]6O[C@@H]6OC=C[C@@]65O)[C@H]12)[C@@H]43` [AZADIRACHTIN O], for which the LD50 in data set [1] was 1.19 µg/g; in data set [2], 0.79 µg/g; in data set [3], 1.92 µg/g; in data set [4] it was 3.92 µg/g.
Taken in the same sequence, the figures for `C/C=C(\C)C(=O)O[C@H]1C[C@@H](OC(C)=O)[C@@]2(C(=O)OC)CO[C@H]3[C@@H](O)[C@@](C)([C@]45O[C@@]4(C)[C@H]4C[C@@H]5O[C@@H]5OC=C[C@@]54O)[C@@H]4[C@@H](O)OC[C@@]14[C@@H]32` were 1.38 µg/g, 0.75 µg/g, 4.2 µg/g and 5.75 µg/g.
Consider `COC(=O)[C@@]12CO[C@H]3[C@@H](O)[C@@](C)([C@]45O[C@@]4(C)[C@H]4C[C@@H]5O[C@@H]5OC=C[C@@]54O)[C@@H]4[C@@H](O)OC[C@]4([C@@H](OC(=O)CC(C)C)C[C@H]1OC(C)=O)[C@@H]32` [AZADIRACHTIN P], for which the LD50 in data set [1] was found to be 1.19 µg/g; in data set [2], 0.79 µg/g; in data set [3] it was 1.73 µg/g; in data set [4] it was 2.19 µg/g.
In the case of `C/C=C(\C)C(=O)O[C@H]1C[C@@H](OC(C)=O)[C@@]2(C(=O)OC)CO[C@H]3[C@@H](O)[C@@](C)([C@]45O[C@@]4(C)[C@@H]4C[C@H]5O[C@@H]5OC=C[C@@]54O)[C@H]4[C@]1(CO[C@]4(O)C(=O)OC)[C@@H]32` [AZADIRACHTIN A], the LD50 came out at 1.28 µg/g in data set [1], 0.87 µg/g in data set [2], 4.12 µg/g in data set [3] and 7.04 µg/g in data set [4].
The like results for `C/C=C(\C)C(=O)O[C@H]1C[C@@H](OC(C)=O)[C@@]2(C(=O)OC)CO[C@H]3[C@@H](O)[C@@](C)([C@]45O[C@@]4(C)[C@H]4C[C@@H]5O[C@@H]5OC=C[C@@]54O)[C@@H]4[C@@H](C(=O)OC)OC[C@@]14[C@@H]32` [AZADIRACHTIN M] were, in that order, 4.23 µg/g, 1.3 µg/g, 4.84 µg/g and 8.46 µg/g.
The like results for `COC(=O)[C@H]1OC[C@]23[C@@H]1[C@](C)([C@]14O[C@@]1(C)[C@H]1C[C@@H]4O[C@@H]4OC=C[C@@]41O)[C@H](O)[C@@H]1OC[C@](C(=O)OC)([C@H](O)C[C@@H]2O)[C@H]13` [AZADIRACHTOL] were, in that order, 2.35 µg/g, 1.78 µg/g, 3.28 µg/g and 4.88 µg/g.
Turning to `COC(=O)[C@H]1OC[C@@]23[C@@H](OC(C)=O)C[C@@H](OC(C)=O)[C@@]4(C(=O)OC)CO[C@@H]([C@@H](O)[C@@](C)([C@]56O[C@@]5(C)[C@H]5C[C@@H]6O[C@@H]6OC=C[C@@]65O)[C@H]12)[C@@H]43` [AZADIRACHTIN Q], the LD50 in data set [1] came out at 1.4 µg/g; in data set [2], 1.1 µg/g; in data set [3] it was 1.89 µg/g; in data set [4], 5.95 µg/g.
For `C/C=C(\C)C(=O)O[C@@H]1C[C@H](O)[C@]23CO[C@H](C(=O)OC)[C@H]2[C@](C)([C@]24O[C@@]2(C)[C@H]2C[C@@H]4O[C@@H]4OC=C[C@@]42O)[C@H](O)[C@@H]2OC[C@@]1(C(=O)OC)[C@H]23` [AZADIRACHTIN B], the LD50 was 1.56 µg/g in data set [1], 1.06 µg/g in data set [2], 2.26 µg/g in data set [3] and 4.85 µg/g in data set [4].
In the case of `C/C=C(\C)C(=O)O[C@H]1C[C@@H](OC(C)=O)[C@@]2(C(=O)OC)CO[C@H]3[C@@H](O)[C@@](C)([C@]45O[C@@]4(C)[C@H]4C[C@@H]5O[C@@H]5OC=C[C@@]54O)[C@@H]4[C@@H](OC(C)=O)OC[C@@]14[C@@H]32` [AZADIRACHTIN L], the LD50 was 5.39 µg/g in data set [1], 1.92 µg/g in data set [2], 7.89 µg/g in data set [3] and 10.27 µg/g in data set [4].

These data come from ChEMBL document CHEMBL1158807, “Azadirachtin derivatives from seed kernels of Azadirachta excelsa” (J Nat Prod, 2005).
